Read-outs that look alike come from different tables or passages of the source. Starred links: 1 amine or outer side, 2 acyl side, 3 side chain; linkers in the order of their positions; H or OH if unused. Non-standard residues stand in square brackets, D forms with d. Groups on a side chain read outwards from the residue. No end group written: not given here. *: point of attachment. C20 diacid = O=C(O)CCCCCCCCCCCCCCCCCCC(=O)*; C18 diacid = O=C(O)CCCCCCCCCCCCCCCCC(=O)*; γGlu = O=C(O)[C@H](CCC(=O)[*:2])N[*:1]; εLys = N[C@@H](CCCCN[*:1])C(=O)[*:2]; AEEA = NCCOCCOCC(=O)O; Aib = CC(C)(N)C(=O)O
How the values were obtained:
Assay type in all cases: cell-based
Details in all cases: CreLuc reporter gene assay
hGLP1R = target: T1, hGLP1R (Homo sapiens, UniProt P43220); assay: hGLP1R CreLuc reporter gene assay in 0.5% and 100% plasma
T1 construct: expressed in transfected cells; host or cells: HEK-293 cells carrying a CRE-luciferase reporter gene
T1 sequence (P43220 24-463): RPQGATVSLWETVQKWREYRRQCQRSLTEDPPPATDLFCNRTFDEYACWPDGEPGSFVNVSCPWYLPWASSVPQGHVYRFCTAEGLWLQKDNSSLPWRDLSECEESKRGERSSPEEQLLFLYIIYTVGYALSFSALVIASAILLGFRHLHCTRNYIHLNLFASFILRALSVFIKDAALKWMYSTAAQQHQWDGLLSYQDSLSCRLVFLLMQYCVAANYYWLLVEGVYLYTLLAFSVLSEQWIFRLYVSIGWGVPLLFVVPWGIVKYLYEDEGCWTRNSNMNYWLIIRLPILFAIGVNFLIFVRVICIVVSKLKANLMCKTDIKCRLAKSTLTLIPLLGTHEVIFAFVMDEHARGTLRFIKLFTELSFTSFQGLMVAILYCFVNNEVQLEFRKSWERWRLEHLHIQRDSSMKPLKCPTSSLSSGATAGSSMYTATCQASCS
How it was run: (§1)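 Agonist EC50s came from 8-concentration curves over four decades, fitted by non-linear variable-slope regression of CRE-driven luciferase luminescence. Cells were exposed 4 h at 37 °C, in buffer with 0.5% human plasma or in 100% plasma; GIPR was expressed in CHO cells, GLP-1R and NPY2R in HEK cells.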

hGIPR = target: T2, hGIPR (Homo sapiens, UniProt P48546); assay: hGIPR CreLuc reporter gene assay in 0.5% and 100% plasma
T2 construct: expressed in transfected cells; host or cells: CHO cells carrying a CRE-luciferase reporter gene
T2 sequence (P48546 22-466): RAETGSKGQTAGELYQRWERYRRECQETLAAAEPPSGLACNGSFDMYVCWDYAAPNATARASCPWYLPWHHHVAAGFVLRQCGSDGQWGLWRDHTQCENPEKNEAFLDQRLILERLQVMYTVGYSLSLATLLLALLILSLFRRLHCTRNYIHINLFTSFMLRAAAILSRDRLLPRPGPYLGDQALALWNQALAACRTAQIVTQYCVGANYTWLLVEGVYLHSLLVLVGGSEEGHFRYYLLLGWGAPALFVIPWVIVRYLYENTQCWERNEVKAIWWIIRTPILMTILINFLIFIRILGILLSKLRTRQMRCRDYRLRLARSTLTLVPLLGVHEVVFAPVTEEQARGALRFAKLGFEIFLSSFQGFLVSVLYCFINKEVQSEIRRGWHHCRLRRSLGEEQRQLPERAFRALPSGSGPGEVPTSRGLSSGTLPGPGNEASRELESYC
How it was run: as §1

hNPY2R = target: T3, hNPY2R (Homo sapiens, UniProt P49146); assay: hNPY2R CreLuc reporter gene assay in 0.5% and 100% plasma
T3 construct: expressed in transfected cells; host or cells: HEK-293 cells carrying a CRE-luciferase reporter gene
T3 sequence (P49146 1-381): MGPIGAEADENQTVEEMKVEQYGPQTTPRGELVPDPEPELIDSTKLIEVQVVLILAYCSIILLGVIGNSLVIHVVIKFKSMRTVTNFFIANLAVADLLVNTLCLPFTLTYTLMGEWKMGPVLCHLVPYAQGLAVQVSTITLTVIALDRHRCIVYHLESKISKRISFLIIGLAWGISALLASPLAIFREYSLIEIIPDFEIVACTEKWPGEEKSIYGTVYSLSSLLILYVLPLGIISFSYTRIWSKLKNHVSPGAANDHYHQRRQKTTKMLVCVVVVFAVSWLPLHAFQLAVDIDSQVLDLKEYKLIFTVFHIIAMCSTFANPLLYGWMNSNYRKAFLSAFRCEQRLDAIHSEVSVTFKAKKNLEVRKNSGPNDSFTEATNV
How it was run: as §1

[1] = 0.5% human plasma, read-out: hGLP1R 0.5% hP
[2] = 0.5% human plasma, read-out: hGIPR 0.5% hP
[3] = 100% human plasma, read-out: hGIPR 100% hP
[4] = 0.5% human plasma, read-out: hNPY2R 0.5% hP
[5] = 100% human plasma, read-out: hNPY2R 100% hP
[6] = 100% human plasma, read-out: hGLP1R 100% hP

| Molecule | EC50 (hGLP1R; [1]) | EC50 (hGIPR; [2]) | EC50 (hGIPR; [3]) | EC50 (hNPY2R; [4]) | EC50 (hNPY2R; [5]) | EC50 (hGLP1R; [6]) |
| --- | --- | --- | --- | --- | --- | --- |
| CC[C@H](C)[C@H](NC(=O)[C@H](CC(C)C)NC(=O)[C@H](Cc1c[nH]c2ccccc12)NC(=O)[C@H](CCC(N)=O)NC(=O)[C@@H](NC(=O)[C@H](Cc1ccccc1)NC(=O)[C@H](C)NC(=O)C(C)(C)NC(=O)[C@H](CCC(N)=O)NC(=O)[C@H](C)NC(=O)[C@H](CCC(N)=O)NC(=O)[C@H](CCC(=O)O)NC(=O)[C@H](CCC(=O)O)NC(=O)[C@H](CC(C)C)NC(=O)C(C)(C)NC(=O)[C@@H](NC(=O)[C@H](CO)NC(=O)[C@H](Cc1ccc(O)cc1)NC(=O)[C@H](CC(=O)O)NC(=O)[C@H](CO)NC(=O)[C@@H](NC(=O)[C@H](Cc1ccccc1)NC(=O)[C@@H](NC(=O)CNC(=O)[C@H](CCC(=O)O)NC(=O)C(C)(C)NC(=O)[C@@H](N)Cc1ccc(O)cc1)[C@@H](C)O)[C@@H](C)O)[C@@H](C)CC)C(C)C)C(=O)N[C@@H](CCCCNC(=O)[C@@H](N)CCCCNC(=O)CC[C@H](NC(=O)CC[C@H](NC(=O)CC[C@H](NC(=O)[C@H](CCC(=O)O)NC(=O)CC[C@H](NC(=O)CC[C@H](NC(=O)CCCCCCCCCCCCCCCCCCC(=O)O)C(=O)O)C(=O)O)C(=O)O)C(=O)O)C(=O)O)C(=O)NCC(=O)NCC(=O)N1CCC[C@H]1C(=O)N[C@@H](CO)C(=O)N[C@@H](CO)C(=O)NCC(=O)N[C@@H](C)C(=O)N[C@@H](CO)C(=O)N[C@@H](CC(C)C)C(=O)N[C@@H](CCCNC(=N)N)C(=O)N[C@@H](Cc1c[nH]cn1)C(=O)N[C@@H](Cc1ccc(O)cc1)C(=O)N[C@@H](Cc1ccc(O)cc1)C(=O)N[C@@H](CC(N)=O)C(=O)N[C@@H](Cc1c[nH]c2ccccc12)C(=O)N[C@@H](CC(C)C)C(=O)N[C@H](C(=O)N[C@@H](CCCNC(=N)N)C(=O)N[C@@H](CCC(N)=O)C(=O)N[C@@H](CCCNC(=N)N)C(=O)N[C@@H](Cc1ccc(O)cc1)C(N)=O)[C@@H](C)O [Compound 30, Y-Aib-E-G-T-F-T-S-D-Y-S-I-Aib-L-E-E-Q-A-Q-Aib-A-F-V-Q-W-L-I-K(1,3)-GGPSSGASLRHYYNWLTRQRY-NH2.C20DA-gGlu-gGlu-Glu-gGlu-gGlu-gGlu-eLys(1,2)] | 0.08 nM | 0.13 nM | 1.06 nM | 13.3 nM | 56.3 nM |  |
| H-Y[Aib]EGTFTSDYSI[Aib]LEKQAQ[Aib]EFVEWLIK([γGlu-γGlu-γGlu-γGlu-γGlu-γGlu-C20 diacid])GGPSSGASLRHYYNWLTRQRY-NH2 [Compound 198, Y-Aib-E-G-T-F-T-S-D-Y-S-I-Aib-L-E-K-Q-A-Q-Aib-E-F-V-E-W-L-I-K(1,3)-GGPSSGASLRHYYNWLTRQRY-NH2.C20DA-gGlu-gGlu-gGlu-gGlu-gGlu-glu(1,2)] | 0.47 nM | 0.26 nM |  | 13.1 nM |  |  |
| H-Y[Aib]EGTFTSDYSI[Aib]LEKQAQ[Aib]AFVEWLIK([εLys-γGlu-γGlu-γGlu-γGlu-γGlu-γGlu-C20 diacid])GGPSSGASLRHY[Aib]NWLTRQRY-NH2 [Compound 184, Y-Aib-E-G-T-F-T-S-D-Y-S-I-Aib-L-E-K-Q-A-Q-Aib-A-F-V-E-W-L-I-K(1,3)-G-G-P-S-S-G-A-S-L-R-H-Y-Aib-N-W-L-T-R-Q-R-Y-NH2.C20DA-gGlu-gGlu-gGlu-gGlu-gGlu-gGlu-eLys(1,2)] | 0.18 nM | 0.28 nM | 1.37 nM | 46 nM |  |  |
| H-Y[Aib]EGTFTSDYSI[Aib]LEEQAQ[Aib]AFVEWLIK([εLys-AEEA-AEEA-γGlu-γGlu-γGlu-γGlu-C20 diacid])GGPSSGASLRHYYNWLTRQRY-NH2 [Compound 100, Y-Aib-E-G-T-F-T-S-D-Y-S-I-Aib-L-E-E-Q-A-Q-Aib-A-F-V-E-W-L-I-K(1,3)-GGPSSGASLRHYYNWLTRQRY-NH2.C20DA-gGlu-gGlu-glu-gGlu-OEG-OEG-eLys(1,2)] | 0.12 nM | 0.1 nM | 0.87 nM | 11.2 nM |  | 2.21 nM |
| H-Y[Aib]EGTFTSDYSI[Aib]LELQAQ[Aib]AFVEWLIK([εLys-γGlu-γGlu-γGlu-γGlu-γGlu-γGlu-C20 diacid])GGPSSGASLRHYYNWLTRQRY-NH2 [Compound 209, Y-Aib-E-G-T-F-T-S-D-Y-S-I-Aib-L-E-L-Q-A-Q-Aib-A-F-V-E-W-L-I-K(1,3)-GGPSSGASLRHYYNWLTRQRY-NH2.C20DA-gGlu-gGlu-gGlu-gGlu-gGlu-gGlu-eLys(1,2)] | 0.48 nM | 0.81 nM |  | 35.2 nM |  | 16.7 nM |
| H-Y[Aib]EGTFTSDYSI[Aib]LEKQAQ[Aib]AFVEWLIK([AEEA-AEEA-γGlu-γGlu-γGlu-γGlu-γGlu-C18 diacid])GGPSSPASLRHYYNWLTRQRY-NH2 [Compound 140, Y-Aib-E-G-T-F-T-S-D-Y-S-I-Aib-L-E-K-Q-A-Q-Aib-A-F-V-E-W-L-I-K(1,3)-GGPSSPASLRHYYNWLTRQRY-NH2.C18DA-gGlu-gGlu-gGlu-gGlu-gGlu-OEG-OEG(1,2)] | 0.12 nM | 0.22 nM |  | 12.4 nM | 45.9 nM | 3.11 nM |
| H-Y[Aib]EGTFTSDYSI[Aib]LEKQAQ[Aib]AFVEWLIK([εLys-γGlu-γGlu-γGlu-γGlu-γGlu-γGlu-C20 diacid])GGPSSPESLRHYYNWLTRQRY-NH2 [Compound 73, Y-Aib-E-G-T-F-T-S-D-Y-S-I-Aib-L-E-K-Q-A-Q-Aib-A-F-V-E-W-L-I-K(1,3)-GGPSSPESLRHYYNWLTRQRY-NH2.C20DA-gGlu-gGlu-gGlu-gGlu-gGlu-gGlu-eLys(1,2)] | 0.19 nM | 0.11 nM | 1.61 nM |  | 107 nM | 4.76 nM |
| H-Y[Aib]EGTFTSDYSI[Aib]LEEQAQ[Aib]AFVEWLIK([εLys-γGlu-γGlu-γGlu-γGlu-γGlu-γGlu-C20 diacid])GGPSSGQSLRHYYNWLTRQRY-NH2 [Compound 31, Y-Aib-E-G-T-F-T-S-D-Y-S-I-Aib-L-E-E-Q-A-Q-Aib-A-F-V-E-W-L-I-K(1,3)-GGPSSGQSLRHYYNWLTRQRY-NH2.C20DA-gGlu-gGlu-gGlu-gGlu-gGlu-gGlu-eLys(1,2)] | 0.06 nM | 0.15 nM |  | 13.4 nM |  |  |
| H-Y[Aib]EGTFTSDYSI[Aib]LEKQAQ[Aib]AFVQWLIK([AEEA-AEEA-γGlu-γGlu-γGlu-γGlu-γGlu-C18 diacid])GGPSEGASLRHYYNWLTRQRY-NH2 [Compound 246, Y-Aib-E-G-T-F-T-S-D-Y-S-I-Aib-L-E-K-Q-A-Q-Aib-A-F-V-Q-W-L-I-K(1,3)-GGPSEGASLRHYYNWLTRQRY-NH2.C18DA-gGlu-gGlu-gGlu-gGlu-gGlu-OEG-OEG(1,2)] | 0.11 nM | 0.16 nM | 0.95 nM | 12.8 nM | 28.2 nM |  |
| Y[Aib]EGTFTSDYSI[Aib]LEKQAQ[Aib]AFVEWLIK([AEEA-AEEA-γGlu-γGlu-γGlu-C18 diacid])GGPSEGASLRHYYNWLTRQRY-NH2 [Compound 299, Y-Aib-E-G-T-F-T-S-D-Y-S-I-Aib-L-E-K-Q-A-Q-Aib-A-F-V-E-W-L-I-K(1,3)-GGPSEGASLRHYYNWLTRQRY-NH2.C18DA-gGlu-gGlu-gGlu-OEG-OEG(1,2)] | 0.08 nM | 0.4 nM | 0.71 nM | 11 nM | 31.6 nM |  |
| H-Y[Aib]EGTFTSDYSI[Aib]LEKQAQ[Aib]AFVQWLIK([AEEA-AEEA-Glu-Glu-Glu-Glu-C20 diacid])GGPSEGASLRHYYNWLTRQRY-NH2 [Compound 239, Y-Aib-E-G-T-F-T-S-D-Y-S-I-Aib-L-E-K-Q-A-Q-Aib-A-F-V-Q-W-L-I-K(1,3)-GGPSEGASLRHYYNWLTRQRY-NH2.C20DA-E-E-E-E-OEG-OEG(1,2)] | 0.11 nM | 0.35 nM |  | 13.6 nM |  | 4.76 nM |
| H-Y[Aib]EGTFTSDYSI[Aib]LEKQAQ[Aib]EFVQWLIK([γGlu-γGlu-γGlu-γGlu-γGlu-γGlu-C18 diacid])GGPSEGASLRHYYNWLTRQRY-NH2 [Compound 151, Y-Aib-E-G-T-F-T-S-D-Y-S-I-Aib-L-E-K-Q-A-Q-Aib-E-F-V-Q-W-L-I-K(1,3)-GGPSEGASLRHYYNWLTRQRY-NH2.C18DA-gGlu-gGlu-gGlu-gGlu-gGlu-gGlu(1,2)] | 0.26 nM | 0.91 nM |  | 18.9 nM |  | 4.39 nM |
